Two compounds from ChEMBL document CHEMBL3045439, “Isoforms of the heteropteran Nezara viridula ecdysone receptor: protein characterisation, RH5992 insecticide binding and homology modelling” (Pest Manag Sci, 2011) can be followed below.

SMILES strings stand for the structures.

Holding throughout (type): protein-complex assay
Assay [1] concerns the target T1, Ecdysone receptor (Nezara viridula, UniProt E5L6Y0+E5L6Y1).
T1 sequence (E5L6Y1 whole entry): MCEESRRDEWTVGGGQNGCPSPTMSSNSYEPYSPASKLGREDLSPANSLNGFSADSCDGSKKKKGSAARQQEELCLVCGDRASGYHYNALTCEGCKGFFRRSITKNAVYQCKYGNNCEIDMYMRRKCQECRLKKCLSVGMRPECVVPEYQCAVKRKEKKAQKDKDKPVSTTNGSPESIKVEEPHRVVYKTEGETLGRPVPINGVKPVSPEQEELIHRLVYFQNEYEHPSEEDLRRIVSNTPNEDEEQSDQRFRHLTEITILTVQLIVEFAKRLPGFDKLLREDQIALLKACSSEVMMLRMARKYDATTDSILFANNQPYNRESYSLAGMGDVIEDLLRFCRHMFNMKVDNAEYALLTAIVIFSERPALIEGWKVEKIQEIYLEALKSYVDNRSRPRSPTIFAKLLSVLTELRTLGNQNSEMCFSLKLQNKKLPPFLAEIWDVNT
T1 sequence (E5L6Y0 whole entry): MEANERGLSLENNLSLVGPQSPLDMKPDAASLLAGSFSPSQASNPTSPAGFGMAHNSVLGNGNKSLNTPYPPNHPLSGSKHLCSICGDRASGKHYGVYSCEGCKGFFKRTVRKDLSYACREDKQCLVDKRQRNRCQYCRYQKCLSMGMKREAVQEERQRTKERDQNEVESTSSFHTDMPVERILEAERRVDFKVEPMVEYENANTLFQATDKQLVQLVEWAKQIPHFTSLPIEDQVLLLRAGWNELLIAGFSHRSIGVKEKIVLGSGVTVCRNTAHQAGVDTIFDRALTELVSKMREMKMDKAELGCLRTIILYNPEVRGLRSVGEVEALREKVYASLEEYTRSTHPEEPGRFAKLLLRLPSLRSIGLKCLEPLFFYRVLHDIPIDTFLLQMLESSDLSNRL
As to the kind of experiment: Binding affinity to Nezara viridula EcR.

The target of assay [2] is T2, Ecdysone receptor (Leptinotarsa decemlineata, UniProt Q4W6C8+Q4W6D0).
T2 sequence (Q4W6D0 whole entry): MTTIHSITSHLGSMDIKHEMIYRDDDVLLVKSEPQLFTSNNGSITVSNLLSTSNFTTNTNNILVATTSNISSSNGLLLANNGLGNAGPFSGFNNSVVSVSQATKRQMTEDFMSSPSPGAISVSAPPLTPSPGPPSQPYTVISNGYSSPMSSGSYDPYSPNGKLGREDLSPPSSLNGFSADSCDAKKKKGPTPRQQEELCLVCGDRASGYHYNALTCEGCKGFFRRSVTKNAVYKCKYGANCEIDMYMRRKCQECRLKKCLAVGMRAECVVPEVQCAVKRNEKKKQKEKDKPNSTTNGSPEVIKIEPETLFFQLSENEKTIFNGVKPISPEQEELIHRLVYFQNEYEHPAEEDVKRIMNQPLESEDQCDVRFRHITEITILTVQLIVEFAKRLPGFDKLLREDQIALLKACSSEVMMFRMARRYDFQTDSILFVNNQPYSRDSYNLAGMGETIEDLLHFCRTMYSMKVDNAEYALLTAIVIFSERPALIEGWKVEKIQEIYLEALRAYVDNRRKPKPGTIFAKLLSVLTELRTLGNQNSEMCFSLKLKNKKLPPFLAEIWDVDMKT
T2 sequence (Q4W6C8 whole entry): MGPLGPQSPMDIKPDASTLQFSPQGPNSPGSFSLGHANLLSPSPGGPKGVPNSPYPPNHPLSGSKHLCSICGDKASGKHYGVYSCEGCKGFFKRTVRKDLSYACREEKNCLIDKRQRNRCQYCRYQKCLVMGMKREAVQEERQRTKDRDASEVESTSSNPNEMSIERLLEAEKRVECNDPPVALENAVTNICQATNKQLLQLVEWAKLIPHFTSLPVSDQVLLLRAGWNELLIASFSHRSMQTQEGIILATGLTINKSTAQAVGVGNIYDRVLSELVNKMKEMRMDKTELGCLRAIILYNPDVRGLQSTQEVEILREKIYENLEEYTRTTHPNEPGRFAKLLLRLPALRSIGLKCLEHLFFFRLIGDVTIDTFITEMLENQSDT
As to the kind of experiment: Binding affinity to Leptinotarsa decemlineata EcR.

Assay [3] concerns the target T3, Ecdysone receptor (Drosophila melanogaster, UniProt P20153+P34021).
T3 sequence (P34021 whole entry): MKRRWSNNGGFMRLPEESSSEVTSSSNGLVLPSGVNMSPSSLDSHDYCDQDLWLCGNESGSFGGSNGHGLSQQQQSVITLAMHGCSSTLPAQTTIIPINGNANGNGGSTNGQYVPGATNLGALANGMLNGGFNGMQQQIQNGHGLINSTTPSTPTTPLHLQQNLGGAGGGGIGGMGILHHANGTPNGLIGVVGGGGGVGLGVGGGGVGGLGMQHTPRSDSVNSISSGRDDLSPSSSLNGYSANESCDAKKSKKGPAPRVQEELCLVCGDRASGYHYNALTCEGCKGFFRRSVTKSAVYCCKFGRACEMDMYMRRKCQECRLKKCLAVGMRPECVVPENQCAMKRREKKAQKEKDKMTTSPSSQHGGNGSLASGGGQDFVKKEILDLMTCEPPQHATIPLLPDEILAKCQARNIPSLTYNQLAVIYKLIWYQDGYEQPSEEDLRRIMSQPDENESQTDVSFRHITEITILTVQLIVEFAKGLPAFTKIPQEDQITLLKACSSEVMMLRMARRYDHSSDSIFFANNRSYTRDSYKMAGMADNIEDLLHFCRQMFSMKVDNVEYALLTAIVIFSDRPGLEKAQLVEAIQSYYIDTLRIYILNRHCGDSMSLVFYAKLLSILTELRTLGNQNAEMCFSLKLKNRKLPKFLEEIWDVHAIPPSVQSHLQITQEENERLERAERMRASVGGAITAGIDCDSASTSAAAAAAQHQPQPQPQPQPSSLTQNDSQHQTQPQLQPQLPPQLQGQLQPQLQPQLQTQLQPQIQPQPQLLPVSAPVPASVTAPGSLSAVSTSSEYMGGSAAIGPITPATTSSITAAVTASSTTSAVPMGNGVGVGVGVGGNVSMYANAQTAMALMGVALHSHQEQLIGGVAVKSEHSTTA
T3 sequence (P20153 whole entry): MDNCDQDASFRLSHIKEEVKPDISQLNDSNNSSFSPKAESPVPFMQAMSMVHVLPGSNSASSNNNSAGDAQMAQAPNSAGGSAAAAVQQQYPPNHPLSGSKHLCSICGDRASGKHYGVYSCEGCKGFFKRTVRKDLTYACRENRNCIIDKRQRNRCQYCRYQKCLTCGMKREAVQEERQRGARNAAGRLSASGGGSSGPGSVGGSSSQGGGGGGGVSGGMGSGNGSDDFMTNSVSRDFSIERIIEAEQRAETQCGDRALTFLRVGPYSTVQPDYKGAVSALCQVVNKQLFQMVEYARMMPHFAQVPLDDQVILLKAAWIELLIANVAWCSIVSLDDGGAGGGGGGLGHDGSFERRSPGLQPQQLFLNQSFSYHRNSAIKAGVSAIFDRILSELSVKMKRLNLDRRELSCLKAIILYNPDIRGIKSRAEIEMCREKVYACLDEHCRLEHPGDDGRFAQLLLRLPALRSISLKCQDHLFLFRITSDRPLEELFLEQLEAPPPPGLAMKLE
As to the kind of experiment: Binding affinity to Drosophila melanogaster EcR.

As a reminder, the IC50 is the point on the concentration scale where inhibition reaches its midpoint. In general, Ki refers to a measure of affinity in units of concentration, obtained from inhibition or displacement.

Consider `CC(C)(O)CC[C@@H](O)[C@](C)(O)[C@H]1CC[C@@]2(O)C3=CC(=O)[C@@H]4C[C@@H](O)[C@@H](O)C[C@]4(C)[C@H]3CC[C@]12C` [20-HYDROXYECDYSONE], for which the IC50 on Ecdysone receptor [1] was 1.05 µM; on Ecdysone receptor [2] it was 0.437 µM; at Ecdysone receptor [3], 0.0457 µM.
`CCc1ccc(C(=O)NN(C(=O)c2cc(C)cc(C)c2)C(C)(C)C)cc1` [TEBUFENOZIDE]: the values for the Ki at Ecdysone receptor [1], on Ecdysone receptor [2] and at Ecdysone receptor [3] were 25.1 µM, 2.51 µM and 0.251 µM, respectively.
